{"source": "patent US20190307820A1", "about": "“COMPOSITIONS AND METHODS OF USING STAT1/3 INHIBITORS WITH ONCOLYTIC HERPES VIRUS” (priority 2016, published 2019)", "key": {"[1]": {"test_system": "oHSV-1 (G207) in U87 tumors", "assay": "U87 xenograft, C16 with G207: viral DNA qPCR and immunohistochemistry of tumors", "type": "in vivo, mice", "details": "5 mg/kg C16, day 13", "description": "FIG. 14A is a bar graph showing that C16 triggers oHSV-1 protein expression in microglia/macrophages and enhances virus concentration in glioblastoma in vivo. U87 xenograft mice were treated with vehicle or 5 mg/kg C16 with or without 6×10^6 PFU/ml oHSV-1 (G207) viruses (n=2). Two doses of G207 or vehicle and 4 doses (in every 3 or 4 days) of C16 was administered in total. Tumors were harvested at day 13 post-treatment. Total genomic DNA was extracted from the harvested tumors (n=2) and viral DNA (ICP27) was measured by qPCR (normalized to β-actin). Data shown are relative 2-ΔΔCT value±SE.\n5 to 6 weeks old female athymic nude mice were obtained from Harlon laboratories. Human glioma U87 cells were implanted subcutaneously into the lower flank. When tumor size reached ˜75 to 100 mm3, vehicle or C16 (5 mg/kg) was administered intraperitoneally (IP). 2 days (FIG. 14) or 4 days (FIG. 15) after initial C16 administration, vehicle or oHSV-1 were injected intratumourally. Tumor volume was then measured using a caliper (Height×Length×Wide/2). At the end of the experiment, mice were euthanized by using CO2 asphyxiation.\nDNA was extracted from 4% paraformaldehyde fixed tumor tissues by using an EZNA tissue DNA kit (Omega Bioteck). […]"}, "STAT1": {"target": "T1, STAT1 (Homo sapiens, UniProt P42224)", "T1 construct": "Extracted protein was then subjected to western blot assay; endogenous in cells; host or cells: U87 cells, with or without HrR3 infection", "T1 sequence (P42224 1-750)": "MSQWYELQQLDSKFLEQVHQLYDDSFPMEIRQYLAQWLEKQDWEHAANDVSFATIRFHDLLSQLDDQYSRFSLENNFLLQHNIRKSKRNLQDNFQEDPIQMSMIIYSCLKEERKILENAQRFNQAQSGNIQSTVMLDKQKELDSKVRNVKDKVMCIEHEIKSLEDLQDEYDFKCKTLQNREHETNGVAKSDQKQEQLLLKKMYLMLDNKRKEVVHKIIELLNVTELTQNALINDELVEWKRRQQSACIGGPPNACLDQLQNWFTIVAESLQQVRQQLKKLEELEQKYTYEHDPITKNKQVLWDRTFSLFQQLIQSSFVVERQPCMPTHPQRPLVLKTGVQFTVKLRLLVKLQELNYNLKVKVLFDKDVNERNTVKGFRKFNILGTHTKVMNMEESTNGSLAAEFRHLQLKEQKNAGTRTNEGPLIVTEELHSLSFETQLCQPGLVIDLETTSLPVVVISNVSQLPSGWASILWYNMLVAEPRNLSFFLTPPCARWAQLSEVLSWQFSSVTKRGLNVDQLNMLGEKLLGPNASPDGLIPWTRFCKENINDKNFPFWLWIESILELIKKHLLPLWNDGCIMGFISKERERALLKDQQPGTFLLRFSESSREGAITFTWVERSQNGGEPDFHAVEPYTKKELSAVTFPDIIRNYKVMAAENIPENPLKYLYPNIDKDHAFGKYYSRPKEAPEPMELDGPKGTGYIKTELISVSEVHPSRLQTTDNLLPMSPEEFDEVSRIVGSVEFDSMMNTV", "assay": "Western blot of STAT1 phosphorylation in U87 cells", "type": "cell-based", "description": "(FIG. 5A) U87 cells were treated with HrR3 at a MOI of 5 and indicated concentration of nifuroxazide for 6 hours. Extracted protein was then subjected to western blot assay. (FIG. 5B) U87 cells were treated with indicated concentration of HrR3 or nifuroxazide or stattic or in combination for 72 hours. Cytotoxicity was measured by MTT assay. (FIG. 5C) Relative mRNA level (2^−ΔΔCT) is shown. Data are presented as mean SD, *P<0.05 vs corresponding vehicle treatment.\nFIG. 19A and FIG. 19B, U87 cells (A) or CT26 cells (B) were treated with the indicated concentrations of HrR3 or NF or a combination. Total protein was extracted after 24 hours and subjected to western blot analysis. Band intensity was measured using Image J software and normalized to β-actin. Samples were run in triplicate and data are as means±S.E. Statistically significant differences are indicated by P<0.05 or P<0.01. FIG. 19C, Mice subcutaneously bearing U87 tumors were intratumorally injected with a single dose of HrR3 virus (1×10^6 PFU) and/or peritoneally injected doses of NF as indicated. Tumors were harvested on day 10 post treatment and total protein was extracted from a mouse of each treatment group and subjected to western blot analysis in triplicate. Results are reported as means±S.E.\nExpression of key regulator of the Type1 interferon signaling, STAT1 and STAT3, was determined in nifuroxazide treated oHSV-1 infected U87 cells.\nNF is a known inhibitor of STAT1 and STAT3. To evaluate the underlying molecular mechanism of the anti-tumour effect of the NF and oHSV-1 combination, the STAT1 and STAT3 status in U87 cells (FIG. 19A) and CT26 cells (FIG. 19B) cells was determined after an overnight treatment with NF and oncolytic viruses."}}, "data": [{"smiles": "O=C1Nc2ccc3ncsc3c2/C1=C/c1c[nH]cn1", "note": "[C16, 6,8-Dihydro-8-(1H-imidazol-5-ylmethylene)-7H-pyrrolo[2,3-g]benzothiazol-7-one]", "values": [{"measurement": "oHSV-1 titer in the tumor mass (viral DNA copy number, qPCR)", "setting": "[1]", "result": "significantly enhanced oHSV-1 titer"}]}, {"smiles": "O=C(N/N=C/c1ccc([N+](=O)[O-])o1)c1ccc(O)cc1", "note": "[nifuroxazide, Benzoic acid, 4-hydroxy-, [(5-nitro-2-furanyl)metylene]hydrazide]", "values": [{"measurement": "HrR3 induced upregulation of STAT1 phosphorylation", "setting": "STAT1; 24 hours", "result": "effectively suppressed"}, {"measurement": "STAT1 phosphorylation", "setting": "STAT1; HrR3 MOI of 5, 6 hours", "result": "dose dependent STAT1 and STAT3 phosphorylation reduction"}, {"measurement": "phosphorylation of STAT1", "setting": "STAT1; NF alone, 24 hours", "result": "dose dependent inhibition"}]}]}
